Measurements taken from PubChem BioAssay AID1259407 (Chemical Carcinogenesis Research Information System (CCRIS), 2018).
Calls of active or inactive are those of the source. The rule behind the calls is not given here.

Tested on: CCRIS mutagenicity, Ames/micronucleus/aberration tests
Experiment: CCRIS mutagenicity studies

Structure (SMILES): CN(C)CCN(Cc1cccs1)c1ccccn1
- mutagenic call (Test System: AMES SALMONELLA TYPHIMURIUM, Strain/Indicator: TA97, Metabolic Activation: RAT, LIVER, S-9, AROCLOR 1254, Method: STANDARD PLATE): inactive; negative
- mutagenic call (Test System: AMES SALMONELLA TYPHIMURIUM, Strain/Indicator: TA98, Metabolic Activation: HAMSTER LIVER S-9, AROCLOR 1254 (10%), Method: PREINCUBATION): inactive; negative
- mutagenic call (Test System: AMES SALMONELLA TYPHIMURIUM, Strain/Indicator: TA98, Metabolic Activation: NONE, Method: PREINCUBATION): inactive; negative
- mutagenic call (Test System: AMES SALMONELLA TYPHIMURIUM, Strain/Indicator: TA98, Metabolic Activation: NONE, Method: STANDARD PLATE): inactive; negative
- mutagenic call (Test System: AMES SALMONELLA TYPHIMURIUM, Strain/Indicator: TA98, Metabolic Activation: RAT LIVER S-9, AROCLOR 1254 (10%), Method: PREINCUBATION): inactive; negative
- mutagenic call (Test System: AMES SALMONELLA TYPHIMURIUM, Strain/Indicator: TA98, Metabolic Activation: RAT, LIVER, S-9, AROCLOR 1254, Method: PREINCUBATION): inactive; negative
- mutagenic call (Test System: AMES SALMONELLA TYPHIMURIUM, Strain/Indicator: TA98, Metabolic Activation: RAT, LIVER, S-9, AROCLOR 1254, Method: STANDARD PLATE): inactive; negative
- mutagenic call (Test System: AMES SALMONELLA TYPHIMURIUM, Strain/Indicator: TA98, Metabolic Activation: RAT, LIVER, S-9, Method: STANDARD PLATE): inactive; negative
- mutagenic call (Test System: AMES SALMONELLA TYPHIMURIUM, Strain/Indicator: TA98, Method: STANDARD PLATE): inactive; negative
- mutagenic call (Test System: AMES SALMONELLA TYPHIMURIUM, Strain/Indicator: TA100, Metabolic Activation: HAMSTER LIVER S-9, AROCLOR 1254 (10%), Method: PREINCUBATION): inactive; negative
- mutagenic call (Test System: AMES SALMONELLA TYPHIMURIUM, Strain/Indicator: TA100, Metabolic Activation: NONE, Method: PREINCUBATION): inactive; negative
- mutagenic call (Test System: AMES SALMONELLA TYPHIMURIUM, Strain/Indicator: TA100, Metabolic Activation: NONE, Method: STANDARD PLATE): inactive; negative
- mutagenic call (Test System: AMES SALMONELLA TYPHIMURIUM, Strain/Indicator: TA100, Metabolic Activation: RAT LIVER S-9, AROCLOR 1254 (10%), Method: PREINCUBATION): inactive; negative
- mutagenic call (Test System: AMES SALMONELLA TYPHIMURIUM, Strain/Indicator: TA100, Metabolic Activation: RAT, LIVER, S-9, AROCLOR 1254, Method: STANDARD PLATE): inactive; negative
- mutagenic call (Test System: AMES SALMONELLA TYPHIMURIUM, Strain/Indicator: TA100, Metabolic Activation: RAT, LIVER, S-9, Method: STANDARD PLATE): inactive; negative
- mutagenic call (Test System: AMES SALMONELLA TYPHIMURIUM, Strain/Indicator: TA100, Method: STANDARD PLATE): inactive; negative
- mutagenic call (Test System: AMES SALMONELLA TYPHIMURIUM, Strain/Indicator: TA104, Metabolic Activation: NONE, Method: STANDARD PLATE): inactive; negative
- mutagenic call (Test System: AMES SALMONELLA TYPHIMURIUM, Strain/Indicator: TA104, Metabolic Activation: RAT, LIVER, S-9, AROCLOR 1254, Method: STANDARD PLATE): inactive; negative
- mutagenic call (Test System: AMES SALMONELLA TYPHIMURIUM, Strain/Indicator: TA104, Metabolic Activation: RAT, LIVER, S-9, Method: STANDARD PLATE): inactive; negative
- mutagenic call (Test System: AMES SALMONELLA TYPHIMURIUM, Strain/Indicator: TA104, Method: STANDARD PLATE): inactive; negative
- mutagenic call (Test System: AMES SALMONELLA TYPHIMURIUM, Strain/Indicator: TA1535, Metabolic Activation: HAMSTER LIVER S-9, AROCLOR 1254 (10%), Method: PREINCUBATION): inactive; negative
- mutagenic call (Test System: AMES SALMONELLA TYPHIMURIUM, Strain/Indicator: TA1535, Metabolic Activation: NONE, Method: PREINCUBATION): inactive; negative
- mutagenic call (Test System: AMES SALMONELLA TYPHIMURIUM, Strain/Indicator: TA1535, Metabolic Activation: RAT LIVER S-9, AROCLOR 1254 (10%), Method: PREINCUBATION): inactive; negative
- mutagenic call (Test System: AMES SALMONELLA TYPHIMURIUM, Strain/Indicator: TA1535, Metabolic Activation: RAT, LIVER, S-9, AROCLOR 1254, Method: STANDARD PLATE): inactive; negative
- mutagenic call (Test System: AMES SALMONELLA TYPHIMURIUM, Strain/Indicator: TA1535, Metabolic Activation: RAT, LIVER, S-9, Method: STANDARD PLATE): inactive; negative
- mutagenic call (Test System: AMES SALMONELLA TYPHIMURIUM, Strain/Indicator: TA1535, Method: STANDARD PLATE): inactive; negative
- mutagenic call (Test System: AMES SALMONELLA TYPHIMURIUM, Strain/Indicator: TA1537, Metabolic Activation: HAMSTER LIVER S-9, AROCLOR 1254 (10%), Method: PREINCUBATION): inactive; negative
- mutagenic call (Test System: AMES SALMONELLA TYPHIMURIUM, Strain/Indicator: TA1537, Metabolic Activation: NONE, Method: PREINCUBATION): inactive; negative
- mutagenic call (Test System: AMES SALMONELLA TYPHIMURIUM, Strain/Indicator: TA1537, Metabolic Activation: NONE, Method: STANDARD PLATE): inactive; negative
- mutagenic call (Test System: AMES SALMONELLA TYPHIMURIUM, Strain/Indicator: TA1537, Metabolic Activation: RAT LIVER S-9, AROCLOR 1254 (10%), Method: PREINCUBATION): inactive; negative
- mutagenic call (Test System: AMES SALMONELLA TYPHIMURIUM, Strain/Indicator: TA1537, Metabolic Activation: RAT, LIVER, S-9, AROCLOR 1254, Method: STANDARD PLATE): inactive; negative
- mutagenic call (Test System: AMES SALMONELLA TYPHIMURIUM, Strain/Indicator: TA1537, Metabolic Activation: RAT, LIVER, S-9, Method: STANDARD PLATE): inactive; negative
- mutagenic call (Test System: AMES SALMONELLA TYPHIMURIUM, Strain/Indicator: TA1537, Method: STANDARD PLATE): inactive; negative
- mutagenic call (Test System: AMES SALMONELLA TYPHIMURIUM, Strain/Indicator: TA1538, Metabolic Activation: RAT, LIVER, S-9, AROCLOR 1254, Method: STANDARD PLATE): inactive; negative
- mutagenic call (Test System: AMES SALMONELLA TYPHIMURIUM, Strain/Indicator: TA2638, Metabolic Activation: NONE, Method: STANDARD PLATE): inactive; negative
- mutagenic call (Test System: AMES SALMONELLA TYPHIMURIUM, Strain/Indicator: TA2638, Metabolic Activation: RAT, LIVER, S-9, AROCLOR 1254, Method: STANDARD PLATE): inactive; negative
- mutagenic call (Test System: AMES SALMONELLA TYPHIMURIUM, Strain/Indicator: TA2638, Metabolic Activation: RAT, LIVER, S-9, Method: STANDARD PLATE): inactive; negative
- mutagenic call (Test System: AMES SALMONELLA TYPHIMURIUM, Strain/Indicator: TA2638, Method: STANDARD PLATE): inactive; negative
- mutagenic call (Test System: CHINESE HAMSTER OVARY, Strain/Indicator: CHO-K1-BH4 (HGPRT), Metabolic Activation: NONE, Method: SUSPENSION/PLATE): inactive; negative
- mutagenic call (Test System: CHINESE HAMSTER OVARY, Strain/Indicator: CHO-K1-BH4 (HGPRT), Metabolic Activation: RAT, LIVER, S-9, AROCLOR, Method: SUSPENSION/PLATE): inactive; negative
- mutagenic call (Test System: E. COLI, Strain/Indicator: WP2 UVRA, Metabolic Activation: NONE, Method: STANDARD PLATE): inactive; negative
- mutagenic call (Test System: E. COLI, Strain/Indicator: WP2 UVRA, Metabolic Activation: RAT, LIVER, S-9, AROCLOR 1254, Method: STANDARD PLATE): inactive; negative
- mutagenic call (Test System: E. COLI, Strain/Indicator: WP2 UVRA, Metabolic Activation: RAT, LIVER, S-9, Method: STANDARD PLATE): inactive; negative
- mutagenic call (Test System: E. COLI, Strain/Indicator: WP2 UVRA, Method: STANDARD PLATE): inactive; negative
- mutagenic call (Test System: MOUSE LYMPHOMA, Strain/Indicator: L5178Y (TK+/+)/TRIFLUOROTHYMIDINE, Metabolic Activation: RAT LIVER S-9, AROCLOR 1254, Method: SUSPENSION/PLATE): inactive; negative
- mutagenic call (Test System: MOUSE LYMPHOMA, Strain/Indicator: L5178Y (TK+/TK-), Metabolic Activation: NONE, Method: SUSPENSION/PLATE): inactive; negative
- mutagenic call (Test System: MOUSE LYMPHOMA, Strain/Indicator: L5178Y (TK+/TK-), Metabolic Activation: RAT, LIVER, S-9, AROCLOR 1242 AND 1254 (2:1), Method: SUSPENSION/PLATE): active; positive
- mutagenic call (Test System: MOUSE LYMPHOMA, Strain/Indicator: L5178Y (TK+/TK-), Metabolic Activation: RAT, LIVER, S-9, AROCLOR 1242 AND 1254 (2:1 MIXTURE), Method: SUSPENSION/PLATE): active; positive
- mutagenic call (Test System: MOUSE LYMPHOMA, Strain/Indicator: L5178Y (TK+/TK-), Metabolic Activation: RAT, LIVER, S-9, AROCLOR 1254, Method: SUSPENSION/PLATE): inactive; negative
- mutagenic call (Test System: UDS RAT HEPATOCYTES, Strain/Indicator: THY INCORP, Metabolic Activation: NONE, Method: AUTORADIOGRAPHY (SERUM-FREE MEDIA)): active; positive
